Results on 19 molecules are retold here after PubChem BioAssay (NCI).

Structures are written as SMILES.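 Test compounds were applied to cells in 96-well plates for 48 hours at 5 doses. Abbreviation: GI50, concentration required for 50% inhibition of growth. TGI is the concentration that stops growth completely.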

Test systems include A549 NSCLC; A498 renal; SK-OV-3 ovarian; RXF 393 renal; ACHN renal; NCI-H23 lung; TK-10 renal; MOLT-4 leukemia; NCI-H226 lung; HCC-2998 colon; NCI-H460 lung; BT-549 breast; EKVX NSCLC.
Common to all, as to assay: NCI tumour cell line growth inhibition, 48 h

`O=C(CSc1nnc(Cc2ccccc2)o1)Nc1ccccc1`: the TGI in the assay on A549 NSCLC, with A498 renal, in the assay with SK-OV-3 ovarian, in the assay with RXF 393 renal, in the assay with ACHN renal and with NCI-H23 lung was greater than 100 µM each time. Also, the TGI in the assay with TK-10 renal, in the assay with MOLT-4 leukemia, with NCI-H226 lung, with HCC-2998 colon and in the assay with NCI-H460 lung was greater than 100 µM in each case.
For the molecule `O=C1C(Cl)=C(Nc2ccc(S(=O)(=O)O)cc2)C(=O)c2ccccc21`, the TGI in the assay with A549 NSCLC is 58.7 µM; in the assay on BT-549 breast, greater than 100 µM; in the assay with RXF 393 renal it was 37.6 µM; in the assay with ACHN renal, 45.8 µM; in the assay on EKVX NSCLC, 52.5 µM; with NCI-H23 lung it was greater than 100 µM. The TGI with TK-10 renal is 42.9 µM; in the assay on MOLT-4 leukemia, greater than 100 µM; in the assay on NCI-H226 lung, 61.9 µM; in the assay on HCC-2998 colon, greater than 100 µM; in the assay with NCI-H460 lung it was greater than 100 µM.
For `CC(=O)Oc1cc2c(cc1OC(C)=O)OCC(c1ccccc1)C2` (stereo not given), the TGI in the assay with A549 NSCLC was found to be 39.9 µM; in the assay with A498 renal, 12.2 µM; in the assay on SK-OV-3 ovarian, 72.3 µM; in the assay on RXF 393 renal, 30 µM; with EKVX NSCLC, 57.8 µM; with NCI-H23 lung, 77.6 µM. The TGI worked out at 26.1 µM in the assay with MOLT-4 leukemia, 48.5 µM in the assay with NCI-H226 lung, 65.5 µM in the assay with HCC-2998 colon and 57.9 µM in the assay on NCI-H460 lung.
On to `O=c1[nH]cc(COCCCO)c(=O)[nH]1`, for which the TGI in the assay with A549 NSCLC, in the assay on A498 renal, with SK-OV-3 ovarian, in the assay on RXF 393 renal, in the assay with ACHN renal and in the assay on EKVX NSCLC was greater than 100 µM in each case. Besides, the TGI in the assay on NCI-H23 lung, in the assay with TK-10 renal, in the assay on MOLT-4 leukemia, in the assay with NCI-H226 lung and in the assay on NCI-H460 lung was greater than 100 µM each time.
For `COc1cc(C2SCC(=O)N2c2cccc(Cl)c2)cc(OC)c1OC` (stereo not given), the TGI with A549 NSCLC, with A498 renal, in the assay on BT-549 breast, in the assay with SK-OV-3 ovarian, with ACHN renal and in the assay with EKVX NSCLC was greater than 100 µM in each case. Further, the TGI in the assay with NCI-H23 lung, in the assay on TK-10 renal, in the assay on MOLT-4 leukemia, with NCI-H226 lung, in the assay with HCC-2998 colon and in the assay with NCI-H460 lung was greater than 100 µM in each case.
With `CC(=O)CN(Cc1cc(C)c2c(c1)c1ccccc1n2Cc1ccccc1)S(=O)(=O)c1ccc(C)cc1`, the TGI in the assay with A549 NSCLC, in the assay on SK-OV-3 ovarian, in the assay on EKVX NSCLC, with NCI-H23 lung, with TK-10 renal and in the assay with MOLT-4 leukemia was greater than 100 µM each time. Besides, the TGI in the assay on NCI-H226 lung and in the assay with HCC-2998 colon was greater than 100 µM throughout.
Turning to `COC(=O)c1onc(-c2c(OC)cc(OC)cc2OC)c1C(=O)OC`, the TGI in the assay with A549 NSCLC, in the assay on SK-OV-3 ovarian, with RXF 393 renal, in the assay on ACHN renal, in the assay with EKVX NSCLC and in the assay on NCI-H23 lung was greater than 100 µM each time. Further, the TGI in the assay with TK-10 renal, in the assay with MOLT-4 leukemia, with NCI-H226 lung, in the assay with HCC-2998 colon and in the assay on NCI-H460 lung was greater than 100 µM throughout.
For `CCCNC(=O)C(C)C1CCC2(C)C=CC(=O)C(C)=C2C1O` (stereo not given), the TGI with A549 NSCLC, with A498 renal, with SK-OV-3 ovarian, in the assay on RXF 393 renal, with EKVX NSCLC and in the assay on NCI-H23 lung was greater than 100 µM throughout. The TGI with MOLT-4 leukemia, in the assay on NCI-H226 lung, with HCC-2998 colon and with NCI-H460 lung was greater than 100 µM throughout.
`CC1(C)OC(=O)C(C#N)=C1/C=C/c1coc2ccc(Cl)cc2c1=O`: the TGI was greater than 100 µM in the assay on A549 NSCLC; 69.7 µM with SK-OV-3 ovarian; greater than 100 µM in the assay with EKVX NSCLC; 52 µM with NCI-H23 lung; 94.1 µM with MOLT-4 leukemia; 92.6 µM with NCI-H226 lung. Also, the TGI is greater than 100 µM with HCC-2998 colon and 43.8 µM in the assay on NCI-H460 lung.
Regarding `C=CC1(NC(=O)c2ccccc2)CCC(C(C)(C)C)CC1` (stereo not given), the TGI in the assay with A549 NSCLC is greater than 100 µM; in the assay with A498 renal it was greater than 100 µM; in the assay with SK-OV-3 ovarian, greater than 100 µM; in the assay with RXF 393 renal, greater than 85.8 µM; in the assay on EKVX NSCLC, greater than 83.2 µM; in the assay with NCI-H23 lung it was greater than 85 µM. For the same molecule, the TGI was 30.3 µM with MOLT-4 leukemia, greater than 71.6 µM with NCI-H226 lung, greater than 100 µM in the assay with HCC-2998 colon and greater than 92.3 µM in the assay with NCI-H460 lung.
As for `CC(=O)C1C(=O)C(=O)N(c2cccc([N+](=O)[O-])c2)C1=O` (stereo not given), the TGI in the assay on A549 NSCLC, with BT-549 breast, in the assay with SK-OV-3 ovarian, in the assay on RXF 393 renal, in the assay with ACHN renal and with EKVX NSCLC was greater than 100 µM each time. Also, the TGI in the assay on NCI-H23 lung, with TK-10 renal, in the assay with MOLT-4 leukemia, with NCI-H226 lung, with HCC-2998 colon and in the assay with NCI-H460 lung was greater than 100 µM in each case.
Regarding `c1ccc2c(c1)C1CCCCCC21N1CCOCC1` (stereo not given), the TGI in the assay with A549 NSCLC, in the assay with A498 renal, with SK-OV-3 ovarian, with RXF 393 renal, with ACHN renal and with NCI-H23 lung was greater than 100 µM in each case. For the same molecule, the TGI in the assay with TK-10 renal, with MOLT-4 leukemia, in the assay on NCI-H226 lung, with HCC-2998 colon and in the assay on NCI-H460 lung was greater than 100 µM each time.
As to `CO/N=C(/C)c1ccc(NC(=O)CSc2nnc(-c3ccncc3)n2-c2ccccc2)cc1`, the GI50 in the assay with A498 renal was 2.15 µM; in the assay with SK-OV-3 ovarian, 3.34 µM; in the assay with RXF 393 renal it was 2.24 µM; in the assay with NCI-H23 lung it was 4.24 µM; with MOLT-4 leukemia it was greater than 100 µM; in the assay with HCC-2998 colon, greater than 100 µM. The TGI is 8.08 µM in the assay on A498 renal; greater than 100 µM with SK-OV-3 ovarian; 4.93 µM in the assay with RXF 393 renal; greater than 100 µM in the assay on NCI-H23 lung; greater than 100 µM in the assay with MOLT-4 leukemia; greater than 100 µM in the assay with HCC-2998 colon.
`COC(=O)[C@H](CCSC)NC(=O)N[C@H](C)c1ccccc1`: the TGI with A549 NSCLC, with A498 renal, in the assay on BT-549 breast, in the assay on SK-OV-3 ovarian, in the assay with ACHN renal and in the assay on EKVX NSCLC was greater than 100 µM each time. For the same molecule, the TGI in the assay on NCI-H23 lung, in the assay with TK-10 renal, in the assay on MOLT-4 leukemia, in the assay on NCI-H226 lung, in the assay on HCC-2998 colon and in the assay with NCI-H460 lung was greater than 100 µM each time.
With `COc1cccc(NC(=O)CSc2nnc(-c3ccc(NC(C)=O)cc3)o2)c1`, the TGI with A549 NSCLC, in the assay on SK-OV-3 ovarian, with RXF 393 renal, in the assay with ACHN renal, with NCI-H23 lung and in the assay with TK-10 renal was greater than 100 µM throughout. The TGI in the assay with MOLT-4 leukemia, in the assay on NCI-H226 lung and in the assay on NCI-H460 lung was greater than 100 µM each time.
In the case of `NC(N)=NCCCC(NC(=O)c1cccc2c(=O)c3ccccc3[nH]c12)C(=O)O` (stereo not given), the TGI with A549 NSCLC, with A498 renal, in the assay on SK-OV-3 ovarian, with ACHN renal, in the assay with EKVX NSCLC and with NCI-H23 lung was greater than 100 µM each time. Also, the TGI in the assay with TK-10 renal, in the assay with MOLT-4 leukemia and in the assay with NCI-H226 lung was greater than 100 µM throughout.
As for `C/C=C1\CN2CCc3c([nH]c4ccccc34)C2CC1C(=O)OC` (stereo not given), the TGI in the assay with A549 NSCLC, in the assay on SK-OV-3 ovarian, in the assay with RXF 393 renal, in the assay with ACHN renal, with EKVX NSCLC and in the assay with NCI-H23 lung was greater than 322 µM in each case. For the same molecule, the TGI in the assay on TK-10 renal, with MOLT-4 leukemia, in the assay with NCI-H226 lung, in the assay on HCC-2998 colon and in the assay with NCI-H460 lung was greater than 322 µM throughout.
Turning to `O=C(CCl)NNC1=Nc2ccc(Cl)cc2SC1`, the TGI with A549 NSCLC worked out at 26.2 µM; with A498 renal, 35.1 µM; with SK-OV-3 ovarian it was 16.7 µM; in the assay on RXF 393 renal, 3.44 µM; in the assay with EKVX NSCLC, 4.08 µM; in the assay on NCI-H23 lung, 6.27 µM. Also, the TGI was found to be 2.86 µM in the assay on MOLT-4 leukemia, 6.16 µM with NCI-H226 lung, 9.97 µM in the assay with HCC-2998 colon and 20.4 µM in the assay on NCI-H460 lung.
As to `O=C(O)c1ccc(C2COc3ccc(Cl)cc3C2)cc1` (stereo not given), the TGI in the assay on A549 NSCLC, in the assay with A498 renal, in the assay on SK-OV-3 ovarian, in the assay with RXF 393 renal, with ACHN renal and in the assay on EKVX NSCLC was greater than 100 µM each time. In addition, the TGI with NCI-H23 lung, with TK-10 renal, in the assay on MOLT-4 leukemia, in the assay with NCI-H226 lung, with HCC-2998 colon and in the assay on NCI-H460 lung was greater than 100 µM in each case.
